These results are taken from patent US10501421B1, “Substituted benzimidazoles as modulators of Ras signaling” (VANDERBILT UNIVERSITY, priority 2017, dated 2019).

Each structure is given as a SMILES string. Where a name gives a salt, the structure may show the parent alone. Read-outs that look alike come from different tables or passages of the source. A value given as a limit tells only on which side of the number the result lay.

Experiment [1] addresses Ras GEF SOS (Son of Sevenless) (Homo sapiens, UniProt Q07889). Kind of experiment: SOS-mediated nucleotide exchange on Ras (BODIPY-GDP fluorescence). The experiment is classed as biochemical. The settings on record: SOS-mediated exchange of BODIPY-GDP for GTP on Ras. Put shortly: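 Ras loaded with BODIPY-GDP was mixed in buffer with test compound, then GTP and SOS. Fluorescence change from labeled GDP/GTP exchange was followed over time, and rates came from single-exponential fits. EC50 came from a four-parameter fit of mean rate against compound concentration.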

The next experiment has as its target T1, Son of Sevenless (SOS) (Homo sapiens, UniProt Q07889).
T1 sequence (Q07889 564-1049 limits assumed): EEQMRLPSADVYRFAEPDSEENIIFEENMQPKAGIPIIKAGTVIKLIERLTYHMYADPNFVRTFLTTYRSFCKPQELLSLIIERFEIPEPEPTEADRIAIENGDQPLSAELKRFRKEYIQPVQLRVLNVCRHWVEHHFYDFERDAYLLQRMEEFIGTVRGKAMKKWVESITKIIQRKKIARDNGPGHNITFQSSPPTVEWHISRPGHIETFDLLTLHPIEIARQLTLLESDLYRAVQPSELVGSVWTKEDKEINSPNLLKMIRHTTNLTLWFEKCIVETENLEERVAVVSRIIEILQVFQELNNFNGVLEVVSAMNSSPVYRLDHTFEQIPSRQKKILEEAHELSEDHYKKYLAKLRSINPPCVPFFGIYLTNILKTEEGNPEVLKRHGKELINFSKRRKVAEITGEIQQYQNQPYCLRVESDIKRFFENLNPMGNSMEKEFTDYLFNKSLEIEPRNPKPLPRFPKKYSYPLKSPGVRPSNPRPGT
Kind of experiment: Binding to SOS, fluorescence polarization anisotropy (FPA) probe displacement. The settings on record: displacement of FITC-conjugated probe (Example 285), affinity calculated from IC50. Put shortly: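 A FITC-conjugated probe compound was incubated with SOS in buffer, and its displacement was tracked as a change in fluorescence anisotropy across a test-compound dose range. IC50 came from a four-parameter variable-slope fit, and binding affinity was calculated from it.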

The subject of experiment [2] is H727 lung cancer cell lines (G12V K-Ras mutation). Kind of experiment: Inhibition of cancer cell proliferation (CellTiter-Glo). The settings on record: Homo sapiens, NCI-H727, 72 h, read-out: Cell proliferation activity (H727 cancer cell line proliferation IC50). The experiment is classed as cell-based. As for the experimental part: Compounds of the present invention were measured for their ability to kill H727 lung cancer cell lines, which contain a G12V K-Ras mutation. Cell proliferation experiments were conducted in 96-well plates. Cells were plated at 1000 cells/well, incubated overnight, followed by treatment with a dose range of compound for 3 days at 37° C. Cell proliferation was assessed using a CellTiter-Glo assay (Promega) according to the manufacturer's protocol. Data were normalized to DMSO control. IC50 values were determined using a four-parameter dose-response (variable slope) equation. These assays are performed in a manner analogous to the assay disclosed in: Burns, M. C.; Sun, Q.; Daniels, R. N.; Camper, D. V.; Kennedy, J. P.; Phan, J.; Olejniczak, E. O.; Lee, T.; Waterson, A. G.; Rossanese, O. W.; Fesik, S. W. “Approach for targeting Ras with small molecules that activate SOS-mediated nucleotide exchange” Proc. Natl. Acad. Sci. 2014; 11(9): 3401-3406. PMCID: PMC3948241.
Background: ATP-based viability assays read luminescence as a measure of living cells.

Setting [3] is: H727 cells, 3 days treatment, CellTiter-Glo.

Ras GEF SOS (Son of Sevenless), sequence (P01112 1-166 partner limits assumed, one chain of several): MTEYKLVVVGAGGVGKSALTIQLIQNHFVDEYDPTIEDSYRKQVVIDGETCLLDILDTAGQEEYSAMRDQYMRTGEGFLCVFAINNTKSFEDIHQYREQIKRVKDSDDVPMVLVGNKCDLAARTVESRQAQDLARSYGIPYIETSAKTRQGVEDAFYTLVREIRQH

In the case of `C=Cc1cc(Cn2c(N3CCNCC3)nc3cc(C)c(C)cc32)cc(C=C)c1F` [Example 46, 1-(4-fluoro-3,5-divinylbenzyl)-5,6-dimethyl-2-(piperazin-1-yl)-1H-benzo[d]imidazole trifluoroacetate], the EC50 (usually the concentration at which the effect is half-maximal) in experiment [1] fell in the range of 5 to 30 µM. For the same compound, at Son of Sevenless (SOS), the Ki (as a rule, a measure of affinity in units of concentration, obtained from inhibition or displacement) is above 5 µM. Further, in experiment [2], the IC50 lay in the range of 1 to 5 µM.

In experiment [1], `CCc1cc(Cn2c(N3CCNCC3)nc3cc(C)c(C)cc32)cc(Cl)c1F` [Example 48, 1-(3-chloro-5-ethyl-4-fluorobenzyl)-5,6-dimethyl-2-(piperazin-1-yl)-1H-benzo[d]imidazole trifluoroacetate] returned an EC50 of 1 to 5 µM. Moreover, the Ki on Son of Sevenless (SOS) is 1 to 5 µM. Besides, the IC50 in experiment [2] lay within 1 to 5 µM.

In experiment [1], `CCc1cc(Cn2c(N3CCNCC3)nc3cc(C)c(C)cc32)cc(CC)c1F` [Example 49, 1-(3,5-diethyl-4-fluorobenzyl)-5,6-dimethyl-2-(piperazin-1-yl)-1H-benzo[d]imidazole trifluoroacetate] registered an EC50 of 1 to 5 µM. Besides, the Ki on Son of Sevenless (SOS) is above 5 µM. Also, the IC50 in experiment [2] is 1 to 5 µM.

As to `CCc1cc(Cn2c(N3CCNCC3)nc3cc(C)c(C)cc32)ccc1F` [Example 50, 1-(3-ethyl-4-fluorobenzyl)-5,6-dimethyl-2-(piperazin-1-yl)-1H-benzo[d]imidazole trifluoroacetate], the EC50 in experiment [1] lay in the range of 1 to 5 µM. In addition, at Son of Sevenless (SOS), the Ki is above 5 µM. For the same compound, in experiment [2], the IC50 was in the range of 1 to 5 µM.

As to `Cc1cc2nc(N3CCNCC3)n(Cc3ccc(F)c(C4CC4)c3)c2cc1C` [Example 51, 1-(3-cyclopropyl-4-fluorobenzyl)-5,6-dimethyl-2-(piperazin-1-yl)-1H-benzo[d]imidazole trifluoroacetate], in experiment [1], the EC50 fell in the range of 5 to 30 µM. For the same compound, the Ki at Son of Sevenless (SOS) is above 5 µM. Moreover, the IC50 in experiment [2] lay in the range of 1 to 5 µM.

In experiment [1], `C=Cc1cc(Cn2c(N3CCNCC3)nc3cc(C)c(C)cc32)ccc1F` [Example 52, 1-(4-fluoro-3-vinylbenzyl)-5,6-dimethyl-2-(piperazin-1-yl)-1H-benzo[d]imidazole trifluoroacetate] gave an EC50 of 5 to 30 µM. At Son of Sevenless (SOS), the Ki was above 5 µM. Moreover, the IC50 in experiment [2] is above 20 µM.

For `Fc1ccc(Cn2c(NCC3CNC3)nc3ccc(Cl)cc32)cc1Cl` [Example 75, N-(azetidin-3-ylmethyl)-6-chloro-1-(3-chloro-4-fluorobenzyl)-1H-benzo[d]imidazol-2-amine trifluoroacetate], the EC50 in experiment [1] lay within 1 to 5 µM. For the same compound, the Ki at Son of Sevenless (SOS) is 1 to 5 µM. For the same compound, in experiment [2], the IC50 lay in the range of 1 to 5 µM.

The compound `NCC1CN(c2nc3ccc(Cl)cc3n2Cc2ccc(F)c(Cl)c2)C1` [Example 76, (1-(6-chloro-1-(3-chloro-4-fluorobenzyl)-1H-benzo[d]imidazol-2-yl)azetidin-3-yl)methanamine trifluoroacetate] yielded an EC50 in experiment [1] below 1 µM. For the same compound, the Ki on Son of Sevenless (SOS) is below 0.5 µM. Besides, the IC50 in experiment [2] was 1 to 5 µM.

The compound `Fc1ccc(Cn2c(NC3CCNC3)nc3ccc(Cl)cc32)cc1Cl` (centres unmarked) [Example 77, 6-chloro-1-(3-chloro-4-fluorobenzyl)-N-(pyrrolidin-3-yl)-1H-benzo[d]imidazol-2-amine trifluoroacetate] returned an EC50 in experiment [1] below 1 µM. At Son of Sevenless (SOS), the Ki was 0.5 to 1 µM. The IC50 in experiment [2] fell in the range of 1 to 5 µM.

For the compound `COc1ccccc1-c1cccc2c1nc(N1CCNCC1)n2Cc1ccc(F)c(Cl)c1` [Example 81, 1-(3-chloro-4-fluorobenzyl)-4-(2-methoxyphenyl)-2-(piperazin-1-yl)-1H-benzo[d]imidazole trifluoroacetate], the half-maximal effective concentration (EC50) in experiment [1] was in the range of 1 to 5 µM. For the same compound, the Ki at Son of Sevenless (SOS) was 0.5 to 1 µM. Further, in experiment [2], the IC50 was 5 to 20 µM.

`Fc1ccc(Cn2c(N3CCNCC3)nc3c(-c4cccnc4)cccc32)cc1Cl` [Example 89, 1-(3-chloro-4-fluorobenzyl)-2-(piperazin-1-yl)-4-(pyridin-3-yl)-1H-benzo[d]imidazole]: in experiment [1], the EC50 was 1 to 5 µM. Besides, at Son of Sevenless (SOS), the Ki is 1 to 5 µM. Further, the IC50 in experiment [2] (setting [3]) lay within 5 to 20 µM.

In experiment [1], `Cc1cc(-c2cccc3c2nc(N2CCNCC2)n3Cc2ccc(F)c(Cl)c2)n(C)n1` [Example 93, 1-(3-chloro-4-fluorobenzyl)-4-(1,3-dimethyl-1H-pyrazol-5-yl)-2-(piperazin-1-yl)-1H-benzo[d]imidazole] had an EC50 of 1 to 5 µM. The Ki at Son of Sevenless (SOS) was 1 to 5 µM. Also, the IC50 in experiment [2] (setting [3]) was 1 to 5 µM.

For `CC(C)c1ccccc1-c1cccc2c1nc(N1CCNCC1)n2Cc1ccc(F)c(Cl)c1` [Example 94, 1-(3-chloro-4-fluorobenzyl)-4-(2-isopropylphenyl)-2-(piperazin-1-yl)-1H-benzo[d]imidazole], the EC50 in experiment [1] was 1 to 5 µM. Moreover, on Son of Sevenless (SOS), the Ki was 1 to 5 µM. Moreover, the IC50 in experiment [2] (setting [3]) lay in the range of 1 to 5 µM.

In the case of `Cc1cc2c(nc(N3CCNCC3)n2Cc2ccc(F)c(Cl)c2)c(-c2ccccc2)c1C` [Example 104, 1-(3-chloro-4-fluorobenzyl)-5,6-dimethyl-4-phenyl-2-(piperazin-1-yl)-1H-benzo[d]imidazole trifluoroacetate], the EC50 in experiment [1] lay within 1 to 5 µM. Also, the Ki at Son of Sevenless (SOS) was 1 to 5 µM. In experiment [2], the IC50 fell in the range of 1 to 5 µM.

In experiment [1], `Cc1cc2c(nc(N3CCNCC3)n2Cc2ccc(Cl)cc2)c(-c2ccccc2Cl)c1C` [Example 106, 1-(4-chlorobenzyl)-4-(2-chlorophenyl)-5,6-dimethyl-2-(piperazin-1-yl)-1H-benzo[d]imidazole trifluoroacetate] registered an EC50 of 1 to 5 µM. In addition, the Ki on Son of Sevenless (SOS) is 1 to 5 µM. In experiment [2], the IC50 fell in the range of 1 to 5 µM.

Take `Cc1cc2c(nc(N3CCNCC3)n2Cc2ccc(Cl)cc2)c(-c2ccccc2F)c1C` [Example 107, 1-(4-chlorobenzyl)-4-(2-fluorophenyl)-5,6-dimethyl-2-(piperazin-1-yl)-1H-benzo[d]imidazole trifluoroacetate]: the EC50 in experiment [1] lay in the range of 1 to 5 µM. In addition, on Son of Sevenless (SOS), the Ki is 1 to 5 µM. Further, in experiment [2], the IC50 is 5 to 20 µM.

As for `Cc1cc2c(nc(N3CCNCC3)n2Cc2ccc(F)c(Cl)c2)c(-c2ccc(CN)cc2)c1C` [Example 108, (4-(1-(3-chloro-4-fluorobenzyl)-5,6-dimethyl-2-(piperazin-1-yl)-1H-benzo[d]imidazol-4-yl)phenyl)methanamine trifluoroacetate], in experiment [1], the EC50 was below 1 µM. Also, the Ki at Son of Sevenless (SOS) is 0.5 to 1 µM. Moreover, the IC50 in experiment [2] fell in the range of 1 to 5 µM.

In experiment [1], `Cc1cc2c(nc(N3CCNCC3)n2Cc2ccc(F)c(Cl)c2)c(-c2ccccc2C(C)C)c1C` [Example 109, 1-(3-chloro-4-fluorobenzyl)-4-(2-isopropylphenyl)-5,6-dimethyl-2-(piperazin-1-yl)-1H-benzo[d]imidazole] had an EC50 of 1 to 5 µM. The Ki at Son of Sevenless (SOS) is 0.5 to 1 µM. Further, the IC50 in experiment [2] (setting [3]) lay within 1 to 5 µM.

Consider `COc1ccc(-c2c(C)c(C)cc3c2nc(N2CCNCC2)n3Cc2ccc(F)c(Cl)c2)cc1OC` [Example 110, 1-(3-chloro-4-fluorobenzyl)-4-(3,4-dimethoxyphenyl)-5,6-dimethyl-2-(piperazin-1-yl)-1H-benzo[d]imidazole], for which the EC50 in experiment [1] was 1 to 5 µM. Also, the Ki at Son of Sevenless (SOS) was 1 to 5 µM. Further, the IC50 in experiment [2] (setting [3]) was 1 to 5 µM.

With `Cc1cc(Cn2c(NCC3CNC3)nc3ccc(OCCN(C)C)nc32)ccc1F` [Example 263, N-(azetidin-3-ylmethyl)-5-(2-(dimethylamino)ethoxy)-3-(4-fluoro-3-methylbenzyl)-3H-imidazo[4,5-b]pyridin-2-amine], the EC50 in experiment [1] was in the range of 30 to 100 µM. Besides, the IC50 in experiment [2] (setting [3]) lay within 5 to 20 µM.
